Broadly, the kinetic solubility is solubility judged after dilution from a stock solution rather than from solid. Usually Papp stands for a coefficient for how fast a substance crosses the barrier. By solubility (thermodynamic) is commonly meant the concentration in solution at equilibrium with solid. The term Papp A→B denotes how fast a substance crosses the layer from the apical side.

Experimental findings from ChEMBL document CHEMBL3616364, “Going Out on a Limb: Delineating The Effects of β-Branching, N-Methylation, and Side Chain Size on the Passive Permeability, Solubility, and Flexibility of Sanguinamide A Analogues” (J Med Chem, 2015) are described below.

Data set [1] in a line: Kinetic solubility of the compound in PBS at pH 7.4.
Data set [2] in a line: Permeability of the compound at pH 7.4 at 10 uM after 10 hrs by LC-MS based PAMPA. (In PAMPA a lipid-coated filter parts donor from acceptor wells.)
The nature of data set [3]: Retention time of the compound in isocratic acetonitrile/water by HPLC analysis. The note with it: buffer.
A further data set is described as follows: physchem. The note with it: PBS.
The nature of data set [4]: Apparent permeability from apical to basolateral side in human Caco2 cells at 10 uM after 2 hrs by LC-MS/MS analysis. The note with it: Caco-2.

Values after ≈ are worked out from the molar mass of the structure shown. Starred links: 1 amine or outer side, 2 acyl side, 3 side chain; linkers in the order of their positions; H or OH if unused. Non-standard residues stand in square brackets, D forms with d. Residues, ends and D or L forms follow the SMILES beside them. Ile(ψThz) = CC[C@H](C)[C@H](N[*:1])c1nc(C(=O)[*:2])cs1; LeuThz(4-CO) = CC(C)C[C@H](N[*:1])c1nc(C(=O)[*:2])cs1; ValThz = CC(C)[C@H](N[*:1])c1nc(C(=O)[*:2])cs1; NMeF = CN[C@@H](Cc1ccccc1)C(=O)O; NMeI = CC[C@H](C)[C@H](NC)C(=O)O; Tle = CC(C)(C)[C@H](N)C(=O)O; NMeA = CN[C@@H](C)C(=O)O

As for `CC[C@H](C)[C@@H]1NC(=O)[C@@H]2CCCN2C(=O)[C@H](Cc2ccccc2)NC(=O)[C@H](C)NC(=O)c2csc(n2)[C@H]([C@@H](C)CC)NC(=O)[C@@H]2CCCN2C1=O` (cyclo(AFPIP[Ile(ψThz)])), in data set [1], the kinetic solubility amounted to 147 µM (≈ 106 µg/mL). This compound also gave a Papp at 10 h, 10 µM in data set [2] of 5.3 ×10⁻⁶ cm/s. The Retention_time in data set [3] stood at 2.77 min. This compound registered a thermodynamic solubility at 48 h in the data set “physchem” of 107 µM (≈ 77.2 µg/mL). The Papp A→B at 2 h, 10 µM in data set [4] is 1.3 ×10⁻⁶ cm/s.

For the compound `CC[C@H](C)[C@@H]1NC(=O)[C@@H]2CCCN2C(=O)[C@H](Cc2ccccc2)NC(=O)[C@H](C)NC(=O)c2csc(n2)[C@H](CC(C)C)NC(=O)[C@@H]2CCCN2C1=O` (cyclo(AFPIP[LeuThz(4-CO)])), the kinetic solubility in data set [1] is 182 µM (≈ 131 µg/mL). Also, the Papp at 10 h, 10 µM in data set [2] turned out to be 5.6 ×10⁻⁶ cm/s. Moreover, in data set [3], the Retention_time turned out to be 2.87 min. This compound showed a solubility (thermodynamic) at 48 h in “physchem” of 35 µM (≈ 25.3 µg/mL). Besides, the Papp A→B at 2 h, 10 µM in data set [4] worked out at 1.3 ×10⁻⁶ cm/s.

With `CC[C@H](C)[C@@H]1NC(=O)[C@@H]2CCCN2C(=O)[C@H](Cc2ccccc2)NC(=O)[C@H](C)NC(=O)c2csc(n2)[C@H](C(C)C)NC(=O)[C@@H]2CCCN2C1=O` (cyclo(AFPIP[ValThz])), in data set [1], the solubility (kinetic) came out at 285 µM (≈ 202 µg/mL). In data set [2], this compound came in with a Papp at 10 h, 10 µM of 4.8 ×10⁻⁶ cm/s. Besides, the Retention_time in data set [3] was 2.03 min. Besides, the thermodynamic solubility at 48 h in the data set “physchem” worked out at 205 µM (≈ 145 µg/mL). Moreover, in data set [4], the Papp A→B at 2 h, 10 µM turned out to be 3.7 ×10⁻⁶ cm/s.

Consider `CC[C@H](C)[C@@H]1NC(=O)[C@@H]2CCCN2C(=O)[C@H](CC(C)C)NC(=O)[C@@H]2CCCN2C(=O)[C@H](Cc2ccccc2)NC(=O)[C@H](C)NC(=O)c2csc1n2` (cyclo(AFPLP[Ile(ψThz)])), for which, in data set [1], the solubility (kinetic) came to 133 µM (≈ 96 µg/mL). In data set [2], this compound returned a Papp at 10 h, 10 µM of 5.3 ×10⁻⁶ cm/s. Besides, in data set [3], the Retention_time stood at 2.19 min. Besides, in “physchem”, the thermodynamic solubility at 48 h turned out to be 122 µM (≈ 88.1 µg/mL). The Papp A→B at 2 h, 10 µM in data set [4] stood at 0.2 ×10⁻⁶ cm/s.

`CC[C@H](C)[C@@H]1NC(=O)[C@@H]2CCCN2C(=O)[C@H]([C@@H](C)O)NC(=O)[C@@H]2CCCN2C(=O)[C@H](Cc2ccccc2)NC(=O)[C@H](C)NC(=O)c2csc1n2` (cyclo(AFPTP[Ile(ψThz)])) showed a kinetic solubility in data set [1] of 285 µM (≈ 202 µg/mL). The same compound yielded a Papp at 10 h, 10 µM in data set [2] of 0.2 ×10⁻⁶ cm/s. Also, the Retention_time in data set [3] amounted to 1.02 min. Further, the apical-to-basolateral permeability (Papp A→B) at 2 h, 10 µM in data set [4] is 0.4 ×10⁻⁶ cm/s.

The compound `CC[C@H](C)[C@@H]1NC(=O)[C@@H]2CCCN2C(=O)[C@H](C(C)C)NC(=O)[C@@H]2CCCN2C(=O)[C@H](Cc2ccccc2)NC(=O)[C@H](C)NC(=O)c2csc1n2` (cyclo(AFPVP[Ile(ψThz)])) gave a kinetic solubility in data set [1] of 182 µM (≈ 129 µg/mL). In data set [2], the apparent permeability coefficient (Papp) at 10 h, 10 µM was 4.9 ×10⁻⁶ cm/s. Moreover, the Retention_time in data set [3] is reported as 1.97 min. The compound further registered a thermodynamic solubility at 48 h in the data set “physchem” of 236 µM (≈ 167 µg/mL). The Papp A→B at 2 h, 10 µM in data set [4] is 0.3 ×10⁻⁶ cm/s.

Consider `CC[C@H](C)[C@@H]1NC(=O)[C@@H]2CCCN2C(=O)[C@H]([C@@H](C)CC)N(C)C(=O)[C@@H]2CCCN2C(=O)[C@H](Cc2ccccc2)NC(=O)[C@H](C)NC(=O)c2csc1n2` (cyclo(AFP[NMeI]P[Ile(ψThz)])), for which the apparent permeability (Papp) at 10 h, 10 µM in data set [2] is 1.3 ×10⁻⁶ cm/s. The compound also yielded a Retention_time in data set [3] of 1.79 min. Besides, in data set [4], the Papp A→B at 2 h, 10 µM came out at 0.4 ×10⁻⁶ cm/s.

Take `CC[C@H](C)[C@@H]1NC(=O)[C@@H]2CCCN2C(=O)[C@H](Cc2ccccc2)N(C)C(=O)[C@H](C)NC(=O)c2csc(n2)[C@H]([C@@H](C)CC)NC(=O)[C@@H]2CCCN2C1=O` (cyclo(A[NMeF]PIP[Ile(ψThz)])): the solubility (kinetic) in data set [1] stood at 105 µM (≈ 77.3 µg/mL). This compound also had an apparent permeability coefficient (Papp) at 10 h, 10 µM in data set [2] of 11 ×10⁻⁶ cm/s. This compound registered a Retention_time in data set [3] of 3.03 min. Besides, the solubility (thermodynamic) at 48 h in “physchem” turned out to be 172 µM (≈ 127 µg/mL). Moreover, the apical-to-basolateral permeability (Papp A→B) at 2 h, 10 µM in data set [4] stood at 7.4 ×10⁻⁶ cm/s.

`CC[C@H](C)[C@@H]1NC(=O)[C@@H]2CCCN2C(=O)[C@H](C(C)C)NC(=O)[C@@H]2CCCN2C(=O)[C@H](Cc2ccccc2)N(C)C(=O)[C@H](C)NC(=O)c2csc1n2` (cyclo(A[NMeF]PVP[Ile(ψThz)])) registered a solubility (kinetic) in data set [1] of 133 µM (≈ 96 µg/mL). The Papp at 10 h, 10 µM in data set [2] was 9.1 ×10⁻⁶ cm/s. The compound also returned a Retention_time in data set [3] of 2.24 min. In “physchem”, this compound returned a thermodynamic solubility at 48 h of 296 µM (≈ 214 µg/mL). Moreover, the apical-to-basolateral permeability (Papp A→B) at 2 h, 10 µM in data set [4] came out at 6.8 ×10⁻⁶ cm/s.

`CC[C@H](C)[C@@H]1NC(=O)c2csc(n2)[C@H]([C@@H](C)CC)NC(=O)[C@@H]2CCCN2C(=O)[C@H]([C@@H](C)CC)NC(=O)[C@@H]2CCCN2C(=O)[C@H](Cc2ccccc2)NC1=O` (cyclo(FPIP[Ile(ψThz)]I)) displayed a solubility (kinetic) in data set [1] of 39 µM (≈ 29.8 µg/mL). This compound also came in with an apparent permeability (Papp) at 10 h, 10 µM in data set [2] of 6.1 ×10⁻⁶ cm/s. Besides, the Retention_time in data set [3] is given as 7.86 min. This compound showed a thermodynamic solubility at 48 h in the data set “physchem” of 6 µM (≈ 4.58 µg/mL). Besides, the apical-to-basolateral permeability (Papp A→B) at 2 h, 10 µM in data set [4] is 9.6 ×10⁻⁶ cm/s.

Regarding `CC[C@H](C)[C@@H]1NC(=O)[C@@H]2CCCN2C(=O)[C@H](Cc2ccccc2)NC(=O)[C@H](CC(C)C)NC(=O)c2csc(n2)[C@H]([C@@H](C)CC)NC(=O)[C@@H]2CCCN2C1=O` (cyclo(FPIP[Ile(ψThz)]L)), in data set [1], the kinetic solubility is 39 µM (≈ 29.8 µg/mL). The Papp at 10 h, 10 µM in data set [2] came to 4.7 ×10⁻⁶ cm/s. Also, the Retention_time in data set [3] came to 9.13 min. The solubility (thermodynamic) at 48 h in the data set “physchem” amounted to 10 µM (≈ 7.64 µg/mL). Besides, in data set [4], the Papp A→B at 2 h, 10 µM stood at 10.9 ×10⁻⁶ cm/s.

`CC[C@H](C)[C@@H]1NC(=O)[C@@H]2CCCN2C(=O)[C@H](Cc2ccccc2)NC(=O)[C@H](C)N(C)C(=O)c2csc(n2)[C@H]([C@@H](C)CC)NC(=O)[C@@H]2CCCN2C1=O` (cyclo(FPIP[Ile(ψThz)][NMeA])) came in with a solubility (kinetic) in data set [1] of 333 µM (≈ 245 µg/mL). The Papp at 10 h, 10 µM in data set [2] worked out at 0.5 ×10⁻⁶ cm/s. In data set [3], this compound had a Retention_time of 1.48 min. Also, the solubility (thermodynamic) at 48 h in the data set “physchem” amounted to 801 µM (≈ 589 µg/mL). Besides, the Papp A→B at 2 h, 10 µM in data set [4] came to 0.2 ×10⁻⁶ cm/s.

Compound `CC[C@H](C)[C@@H]1NC(=O)[C@@H]2CCCN2C(=O)[C@H](Cc2ccccc2)NC(=O)[C@H](C(C)(C)C)NC(=O)c2csc(n2)[C@H]([C@@H](C)CC)NC(=O)[C@@H]2CCCN2C1=O` (cyclo(FPIP[Ile(ψThz)][Tle])) showed a Retention_time in data set [3] of 8.72 min.

Compound `CC(C)[C@@H]1NC(=O)c2csc(n2)[C@H](C(C)C)NC(=O)[C@@H]2CCCN2C(=O)[C@H](C(C)C)NC(=O)[C@@H]2CCCN2C(=O)[C@H](Cc2ccccc2)NC1=O` (cyclo(FPVP[ValThz]V)) showed a kinetic solubility in data set [1] of 105 µM (≈ 75.8 µg/mL). Besides, the Papp at 10 h, 10 µM in data set [2] amounted to 4.7 ×10⁻⁶ cm/s. This compound had a Retention_time in data set [3] of 2.81 min. The compound further showed a thermodynamic solubility at 48 h in “physchem” of 148 µM (≈ 107 µg/mL). For the same compound, the Papp A→B at 2 h, 10 µM in data set [4] came to 2.2 ×10⁻⁶ cm/s.

`CC[C@H](C)[C@@H]1NC(=O)[C@@H]2CCCN2C(=O)[C@H](Cc2ccccc2)N(C)C(=O)[C@H](CC(C)C)NC(=O)c2csc(n2)[C@H]([C@@H](C)CC)NC(=O)[C@@H]2CCCN2C1=O` (cyclo(IP[Ile(ψThz)]L[NMeF]P)) displayed a kinetic solubility in data set [1] of 133 µM (≈ 103 µg/mL). This compound also had a Papp at 10 h, 10 µM in data set [2] of 17.2 ×10⁻⁶ cm/s. Further, in data set [3], the Retention_time came to 5.06 min. In the data set “physchem”, this compound gave a solubility (thermodynamic) at 48 h of 111 µM (≈ 86.4 µg/mL). Moreover, in data set [4], the apical-to-basolateral permeability (Papp A→B) at 2 h, 10 µM came to 19.3 ×10⁻⁶ cm/s.

In data set [3], `CC[C@H](C)[C@@H]1NC(=O)[C@@H]2CCCN2C(=O)[C@H](Cc2ccccc2)N(C)C(=O)[C@H](C(C)(C)C)NC(=O)c2csc(n2)[C@H]([C@@H](C)CC)NC(=O)[C@@H]2CCCN2C1=O` (cyclo(IP[Ile(ψThz)][Tle][NMeF]P)) gave a Retention_time of 10.94 min.

In the case of `CC[C@H](C)[C@@H]1NC(=O)c2csc(n2)[C@H]([C@@H](C)CC)NC(=O)[C@@H]2CCCN2C(=O)[C@H]([C@@H](C)CC)NC(=O)[C@@H]2CCCN2C(=O)[C@H](Cc2ccccc2)N(C)C1=O` (cyclo(I[NMeF]PIP[Ile(ψThz)])), the kinetic solubility in data set [1] turned out to be 21 µM (≈ 16.3 µg/mL). The same compound gave a Papp at 10 h, 10 µM in data set [2] of 1.5 ×10⁻⁶ cm/s. This compound gave a Retention_time in data set [3] of 10 min. Further, the thermodynamic solubility at 48 h in the data set “physchem” turned out to be 12 µM (≈ 9.34 µg/mL). For the same compound, the Papp A→B at 2 h, 10 µM in data set [4] was determined as 21.2 ×10⁻⁶ cm/s.
